Measured values published in patent EP0171005A2, “Xanthinylmethylthiazolidines, process for their preparation and pharmaceutical compositions containing them” (BOEHRINGER BIOCHEMIA ROBIN S.p.A., priority 1984, dated 1986).
Like-named read-outs stand apart in the source and are kept apart here.

What was measured:
[1] = tested on: trachea smooth muscle strips of Guinea pig contracted by methaco- line; assay: Relaxation in vitro of trachea smooth muscle strips contracted by methacholine; conditions: Cavia porcellus, read-out: ED50 (the source's name)
Text: In particular these latter compounds of the invention are also characterized by pronounced ability to induce relaxation of the bronchial and tracheal smooth muscle.

[2] = tested on: anhaestetized guinea pigs; assay: Konzett-Ressler test, resolution of histamine-induced bronchospasm; format: in vivo; conditions: intrajugular administration; bronchospasm induced by i.v. histamine
conscious mongrel dogs = assay: Dog cough test (Stefko procedure, cough induced by electric stimulation of the trachea); format: in vivo
Protocol: (§1) The techniques described by Charlier et al. (Arch. Int. Pharmacodyn. 134, 306, 1961) and by Stefko et al. (J. Pharm. Exp. Therap., 108, 217, 1953), adapted with minor modifications, are used to investigate the antitussive properties of the compounds of the invention. Codeine phosphate is used as positive reference compound.
In the Stefko procedure, conscious mongrel dogs (15+3 kg body weight) are used; the compounds of the invention are tested for their ability to inhibit cough induced by electric stimulation.
Under general anesthesia, two insulated nichrome wires (0.4 mm diameter) are surgically implanted into the submucosa of the trachea.
About two days later, the dogs are placed in a sling and the exteriorized electrodes are connected to an electric stimulating device (such as Grass S 48 Mod.).
The stimulation parameters such as: delay 0.01 msec, duration 1 msec, frequency 30 Hz, are used.
An electrical stimulus of 1 sec is applied 10 times at 5 sec intervals in order to determine the minimum voltage necessary for eliciting reproducible cough responses. Then, tussive responses to the electrical stimuli are registered at 15, 30, 60, 90, 120, 150, 180, 240, 300 and 360 minutes after oral administration of the compounds of the invention.
The tussive responses are scored as follows: • 1: no response; 2: sigh or exaggerated expiration; • 3: marked cough; 4: one marked cough and one exaggerated expiration; 5: two marked coughs.
Six dogs are employed for each determination and the mean activity is calculated.
The inhibition percent of the cough response and the duration of activity are compared with codeine.

Guinea pigs = assay: Guinea pig cough test (Charlier procedure, citric acid aerosol); format: in vivo; conditions: for ED50: Cavia porcellus, ip, 1 h; for delay of first cough stroke: delay corresponding to the ED50, i.p.
Protocol: as §1
According to the Charlier procedure, Guinea pigs are exposed to a citric acid aerosol (7.5%) and cough is recorded 60 minutes after the antitussive treatment by i.p. route. Male animals of 300-400 g body weight are used in all the experiments. Guinea pigs are placed in a perspex box (20x30x30 cm) connected to an aerosol compressor; the animals are subjected to a citric acid saturated atmosphere, 60 minutes after the i.p. injection of a compound of the invention (0.1 and 0.3 M solutions; 1 ml/kg).
The total number of cough strokes and the delay of the first cough are recorded during the first five minutes.
Five guinea pigs are used for each dose level and the results are compared with controls (vehicle treatment) and codeine phosphate 0.07 M solution (standard treatment).
ED and the corresponding delay of first cough stroke are calculated.
The data obtained by i.p. administration are confirmed by oral administration.

[3] = tested on: male New Zealand white rabbits; assay: Mucus regulating properties in bronchitic rabbits (5% H2SO3 aerosol), sputum parameters as AUC; format: in vivo; conditions: for Fucose (mg/ml), AUC as a 100% compared to bronchitic controls / Galactose (mg/ml), AUC as a 100% compared to bronchitic controls / Mucus produc-tion (ml/kg), AUC as a 100% compared to bronchitic controls / Phospho-lipids (mg/ml), AUC as a 100% compared to bronchitic controls / Protein (mg/ml), AUC as a 100% compared to bronchitic controls / Sialic acid (mg/ml), AUC as a 100% compared to bronchitic controls / Viscosity (cps), AUC as a 100% compared to bronchitic controls: Table 2, oral, equimolecular amounts to S-carboxymethyl cysteine
Protocol: The mucus regulating properties of the compounds of the invention are investigated "in vivo" by means of experiments carried out on male New Zealand white rabbits. The animals are submitted to inhalation of a 5% H2S03 aqueous solution by aerosol (exposition of 3 hours a day for 3 alternate days), to induce a chronic bronchial inflammatory disease which causes a production of pathological sputum in the bronchial tree.
Aim of the experiments is to evaluate modifications of selective parameters such as dry weight of the sputum, viscosity, content in proteins, phospholipids, galactose, sialic acid and fucose, induced in this pathological sputum by pharmacological treatment with the compounds of the invention.
To this purpose, the sputum produced in the bronchial tree is collected daily, through a "T" shaped glass cannula, inserted in the trachea, before and after oral twice a day (9.00 a.m. and 4.00 p.m.) treatment with one of the compounds of the invention.
The schedule treatment procedure is shown in the following Schema 1: [drawing 23] where 0 indicates the day of implantation of the tracheal cannula; -7-5-3 indicate the days of H2S03 treatment (H); 1,2,3,4 indicate the days of oral administration of the compounds of the invention (T) and the time of mucus collection (M).
The mucus collected in day 1 in the morning is considered as a blank; 7 indicates the day of the animal sacrifice after the mucus collection.
The sputum samples are stored in the freezer (-20°C) until the investigation of biological and rheological parameters is carried out.
The samples are investigated for relative viscosity, measured at 37°C with a Brookfield viscometer (model LT VD) equipped with a 1,565° cone-plate, and aliquoted for biochemical analysis of protein, phospholipids, galactose, sialic acid and fucose contents. Dry weight of the mucus is also determined. For each parameter, cumulative data are referred to a seven days period after the beginning of the treatment and they are extrapolated using the AUC method (area under curve) calculated by the trapezoidal rule. Finally the data are compared with data obtained from controls (vehicle treatment), non bronchitic rabbits (vehicle treatment) and positive controls bronchitis rabbits treated with 0.153 M 2-carboxymethyl cysteine.

[4] = Acute toxicity, LD50 in mice; conditions: mouse, in vivo
Text: LD50 values above 1 g/kg are generally determined both after oral and intraperitoneal administration of the compounds of the invention.

[5] = Table 1, 0.153 M, oral twice a day, seven days period

COc1cc(C=CC(=O)N2CCSC2Cn2cnc3c2c(=O)n(C)c(=O)n3C)cc(CN2CCOCC2)c1O (centres unmarked) [2-LTl',3'-dimethyl-xanthin-7'-yl)methyl]-3-[(3-morpholinylmethyl-4'-hydroxy-5'-methoxy)cinnamoyi7thiazolidine]
EC50 [1]: 190 µM
activity compared with aminophylline in the resolution of bronchospasm [2]: at least four times more active than aminophylline

Cn1c(=O)c2c(ncn2CC2NC(C(=O)O)CS2)n(C)c1=O (centres unmarked) [2-[(1',3'-dimethylxanthin-7'-yl)methyl]thiazolidine-4-carboxylic acid]
duration of action compared with codeine (conscious mongrel dogs; 20 mg/kg, dogs): favourably compares with codeine for its duration of action
inhibition at 20 mg/kg (conscious mongrel dogs; Canis lupus familiaris, 20 mg/kg, oral, read-out: inhibition of the cough stimulus): 32%
ED50 (Guinea pigs; citric acid aerosol 7.5%, cough recorded 60 minutes after i.p. treatment, read-out: ED50): 62 mg/kg
delay of first cough stroke (Guinea pigs): 213%
duration of action compared with codeine (Guinea pigs; guinea pig cough test): more favourable duration of action in comparison to codeine
Fucose (mg/ml), AUC as a 100% compared to bronchitic controls [3]: 77%
Galactose (mg/ml), AUC as a 100% compared to bronchitic controls [3]: 82%
Mucus produc-tion (ml/kg), AUC as a 100% compared to bronchitic controls [3]: 128%
Phospho-lipids (mg/ml), AUC as a 100% compared to bronchitic controls [3]: 78%
Protein (mg/ml), AUC as a 100% compared to bronchitic controls [3]: 80%
Sialic acid (mg/ml), AUC as a 100% compared to bronchitic controls [3]: 81%
Viscosity (cps), AUC as a 100% compared to bronchitic controls [3]: 55%

Cn1c(=O)c2c(ncn2CC2NCCS2)n(C)c1=O (centres unmarked) [2-[(1',3'-dimethylxanthin-7'-yl)methyl]thiazolidine]
LD50 ([4]; ip, read-out: LD 50 (i.p.)): 480 mg/kg
LD50 ([4]; oral, read-out: LD 50 (os)): 600 mg/kg
Fucose (mg/ml), AUC as a 100% compared to bronchitic controls [3]: 66%
Galactose (mg/ml), AUC as a 100% compared to bronchitic controls [3]: 5%
Mucus produc-tion (ml/kg), AUC as a 100% compared to bronchitic controls [3]: 80%
Phospho-lipids (mg/ml), AUC as a 100% compared to bronchitic controls [3]: 30%
Protein (mg/ml), AUC as a 100% compared to bronchitic controls [3]: 58%
Sialic acid (mg/ml), AUC as a 100% compared to bronchitic controls [3]: 101%
Viscosity (cps), AUC as a 100% compared to bronchitic controls [3]: 16%

N[C@@H](CSCC(=O)O)C(=O)O [S-carboxy-methyl cy steine, S-carboxymethyl cysteine, reference compound]
Fucose mg/ml, AUC as a % compared to bronchitis controls [3, 5]: 56%
Galactose mg/ml, AUC as a % compared to bronchitis controls [3, 5]: 64%
Mucus production ml/kg, AUC as a % compared to bronchitis controls [3, 5]: 97%
Phospholipids mg/ml, AUC as a % compared to bronchitis controls [3, 5]: 108%
Protein mg/ml, AUC as a % compared to bronchitis controls [3, 5]: 105%
Sialic acid mg/ml, AUC as a % compared to bronchitis controls [3, 5]: 60%
Viscosity (cps), AUC as a % compared to bronchitis controls [3, 5]: 52%

COc1ccc2c3c1O[C@H]1[C@@H](O)C=C[C@H]4[C@@H](C2)N(C)CC[C@@]341 [codeine phosphate, reference compound]
duration of activity (conscious mongrel dogs; 8 mg/kg, oral): 2 to 4 h
inhibition at 8 mg/kg (conscious mongrel dogs; Canis lupus familiaris, po, read-out: inhibition of the cough stimulus): 52%
ED50 (Guinea pigs): ~23 mg/kg
delay of first cough stroke (Guinea pigs): 170%

Cn1c(=O)c2c(ncn2CC(O)CO)n(C)c1=O (centres unmarked) [dihydroxypropyltheophylline, reference compound]
EC50 ([1]; reference, unit inferred): 76 µM
